# Test results as given in BindingDB's records for doi:10.1016/s0960-894x(01)00313-4 (Cor Therapeutics, 2001).
# Target: P2Y purinoceptor 12 (Homo sapiens, UniProt Q9H244)
# Assay: ChEBML_162514
# Description: Ability to displace [3H]2-MeS-ADP from human Purinergic receptor P2Y12
# Sequence of P2Y purinoceptor 12 (Q9H244 whole entry): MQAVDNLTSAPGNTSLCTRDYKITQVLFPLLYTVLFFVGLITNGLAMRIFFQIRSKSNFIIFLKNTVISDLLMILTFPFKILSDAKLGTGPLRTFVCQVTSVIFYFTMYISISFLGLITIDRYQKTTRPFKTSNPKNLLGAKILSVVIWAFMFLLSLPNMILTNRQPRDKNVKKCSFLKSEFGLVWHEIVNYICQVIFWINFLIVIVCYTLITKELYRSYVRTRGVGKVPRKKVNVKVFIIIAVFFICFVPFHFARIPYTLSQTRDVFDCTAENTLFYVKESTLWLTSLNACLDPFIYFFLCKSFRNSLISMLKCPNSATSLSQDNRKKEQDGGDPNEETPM
row,IC50 [µM],SMILES
1,> 50,"O=C(CS(=O)(=O)Nc1nc2ccc(Oc3ccccc3)cc2s1)C1C(=O)N2C(=NS1(=O)=O)Sc1cc(Oc3ccccc3)ccc12 (stereo unspecified) [2-(4-Hydroxy-2,2-dioxo-7-phenoxy-2H-2lambda*6*,9-dithia-1,4a-diaza-fluoren-3-yl)-2-oxo-ethanesulfonic acid (6-phenoxy-benzothiazol-2-yl)-amide]"
2,35,"O=C(CS(=O)(=O)Nc1nc2ccc(Cl)cc2s1)C1C(=O)N2C(=NS1(=O)=O)Sc1cc(Cl)ccc12 (stereo unspecified) [2-(7-Chloro-4-hydroxy-2,2-dioxo-2H-2lambda*6*,9-dithia-1,4a-diaza-fluoren-3-yl)-2-oxo-ethanesulfonic acid (6-chloro-benzothiazol-2-yl)-amide]"
3,> 120,"O=C(CS(=O)(=O)Nc1nc2ccc(C3CCCCC3)cc2s1)C1C(=O)N2C(=NS1(=O)=O)Sc1cc(C3CCCCC3)ccc12 (stereo unspecified) [2-(7-Cyclohexyl-4-hydroxy-2,2-dioxo-2H-2lambda*6*,9-dithia-1,4a-diaza-fluoren-3-yl)-2-oxo-ethanesulfonic acid (6-cyclohexyl-benzothiazol-2-yl)-amide]"
4,> 50,"O=C(CS(=O)(=O)Nc1nc2ccc(-c3ccccc3)cc2s1)C1C(=O)N2C(=NS1(=O)=O)Sc1cc(-c3ccccc3)ccc12 (stereo unspecified) [2-(4-Hydroxy-2,2-dioxo-7-phenyl-2H-2lambda*6*,9-dithia-1,4a-diaza-fluoren-3-yl)-2-oxo-ethanesulfonic acid (6-phenyl-benzothiazol-2-yl)-amide]"
5,> 120,"O=C1CS(=O)(=O)N=C2Sc3cc(OC(F)(F)F)ccc3N12 [2,2-Dioxo-7-trifluoromethoxy-2H-2lambda*6*,9-dithia-1,4a-diaza-fluoren-4-ol]"
6,35,"O=C(CS(=O)(=O)Nc1nc2ccc([N+](=O)[O-])cc2s1)C1=C([O-])[n+]2c(sc3cc([N+](=O)[O-])ccc32)NS1(=O)=O [2-(4-Hydroxy-7-nitro-2,2-dioxo-2H-2lambda*6*,9-dithia-1,4a-diaza-fluoren-3-yl)-2-oxo-ethanesulfonic acid (6-nitro-benzothiazol-2-yl)-amide]"
